Test results from DBAASP.
≈ marks a conversion by molar mass, not a printed value.

Legend:
Assay in all cases: ≥ marks a high value that may be exact or a test limit, other limits are often not marked, values filed in µg/mL are converted to µM
[1] = tested on: Candida albicans ATCC 10231
[2] = tested on: Bacillus subtilis ATCC 23857
Streptococcus mutans = tested on: Streptococcus mutans
[3] = tested on: Candida albicans ATCC 2002
[4] = tested on: Escherichia coli ATCC 25922
[5] = tested on: Staphylococcus aureus ATCC 25923
[6] = tested on: Pseudomonas aeruginosa CMCCB 10104
[7] = tested on: Escherichia coli NCTC 10418
[8] = tested on: Staphylococcus aureus NCTC 10788

Row | Structure (SMILES) | MIC [3] [µM] | MIC [4] [µM] | MIC [5] [µM] | MIC [6] [µM] | further results
1 | C[C@H](N)C(=O)N[C@@H](C)C(=O)N[C@@H](CCCN=C(N)N)C(=O)N[C@@H](CCCN=C(N)N)C(=O)N[C@@H](C)C(=O)N[C@@H](C)C(=O)N[C@@H](CCCN=C(N)N)C(=O)N[C@@H](CCCN=C(N)N)C(=O)N[C@@H](C)C(=O)N[C@@H](C)C(=O)N[C@@H](CCCN=C(N)N)C(=O)N[C@@H](CCCN=C(N)N)C(N)=O [AARRAARRAARR] |  |  |  |  | MIC [1]: > 362 µM; MIC [2]: ≥ 362 µM
2 | CC(C)C[C@H](NC(=O)[C@H](Cc1c[nH]c2ccccc12)NC(=O)[C@H](CCC(N)=O)NC(=O)[C@H](CC(C)C)NC(=O)[C@H](Cc1ccccc1)NC(=O)[C@@H](NC(=O)[C@H](CCCCN)NC(=O)[C@@H](N)Cc1ccccc1)[C@@H](C)O)C(=O)N[C@@H](Cc1cnc[nH]1)C(=O)N[C@@H](CCCN=C(N)N)C(=O)N[C@@H](Cc1ccccc1)C(N)=O [FKTFLQWLHRF] |  |  |  |  | MIC (Streptococcus mutans): 21 µM (≈ 32 µg/mL)
3 | CC[C@H](C)[C@@H]1NC(=O)[C@H](C)NC(=O)[C@@H](NC(=O)[C@H](Cc2ccccc2)NC(=O)[C@@H](NC(=O)[C@@H](NC(=O)[C@@H]2CCCN2C(=O)[C@H](CC(C)C)NC(=O)[C@@H](NC(=O)[C@H](Cc2cnc[nH]2)NC(=O)[C@@H](NC(=O)[C@H](C)NC(=O)[C@@H](NC(=O)[C@H](CC(C)C)NC(=O)[C@H](CC(C)C)NC(=O)[C@@H](NC(=O)[C@H](C)NC(=O)[C@@H]2CCCN2C(=O)[C@H](CC(C)C)NC(=O)[C@@H](N)Cc2ccccc2)C(C)C)C(C)C)[C@@H](C)O)C(C)C)[C@@H](C)O)C(C)C)CSSC[C@@H](C(=O)O)NC(=O)[C@H](CCCCN)NC(=O)[C@H](CCCN=C(N)N)NC(=O)[C@H]([C@@H](C)O)NC1=O [FLPAVLLVATHVLPTVFCAITRKC] | 2.6 (≈ 6.79 µg/mL) | 1.3 (≈ 3.4 µg/mL) | 2.6 (≈ 6.79 µg/mL) | 10.4 (≈ 27.2 µg/mL) | 
4 | CC[C@H](C)[C@H](NC(=O)[C@@H](NC(=O)[C@@H]1CCCN1C(=O)[C@H](CC(C)C)NC(=O)[C@@H](N)Cc1ccccc1)C(C)C)C(=O)N[C@@H](C)C(=O)NCC(=O)N[C@H](C(=O)N[C@@H](CC(C)C)C(=O)N[C@@H](CO)C(=O)N[C@@H](CCCCN)C(=O)N[C@@H](CC(C)C)C(=O)N[C@@H](Cc1ccccc1)C(N)=O)C(C)C [FLPVIAGVLSKLF] |  |  |  |  | MIC [7]: ≥ 40 µM; MIC [8]: 10 µM (≈ 14 µg/mL)
5 | CC[C@H](C)[C@H](NC(=O)CN)C(=O)N[C@@H](Cc1ccccc1)C(=O)N[C@@H](CO)C(=O)N[C@@H](CCCCN)C(=O)N[C@H](C(=O)N[C@@H](CO)C(=O)NCC(=O)N[C@@H](CCCCN)C(=O)N[C@@H](C)C(=O)N[C@H](C(=O)N[C@@H](CCCCN)C(=O)N[C@@H](CC(N)=O)C(=O)N[C@@H](CC(C)C)C(=O)N[C@@H](Cc1ccccc1)C(=O)N[C@H](C(=O)N[C@@H](CCCCN)C(=O)NCC(=O)N[C@@H](C)C(=O)N[C@@H](CCC(=O)O)C(=O)N[C@@H](CC(N)=O)C(=O)N[C@H](C(=O)NCC(=O)N[C@@H](CCCCN)C(=O)N[C@@H](Cc1cnc[nH]1)C(=O)N[C@H](C(=O)NCC(=O)N[C@@H](CCSC)C(=O)N[C@@H](CC(=O)O)C(=O)N[C@H](C(=O)N[C@H](C(=O)N[C@@H](CCCN=C(N)N)C(=O)N[C@H](C(=O)NCC(=O)N[C@H](C(=O)N[C@@H](CC(=O)O)C(=O)N[C@H](C(=O)N[C@H](C(=O)NCC(=O)N[C@H]1CSSC[C@@H](C(=O)O)NC(=O)[C@H](CCC(=O)O)NC(=O)CNC(=O)[C@H](CCCCN)NC(=O)[C@H]([C@@H](C)CC)NC(=O)[C@H](CCCCN)NC1=O)C(C)C)C(C)C)[C@@H](C)CC)[C@@H](C)O)C(C)C)C(C)C)C(C)C)C(C)C)[C@@H](C)CC)[C@@H](C)CC)[C@@H](C)CC [GIFSKISGKAIKNLFIKGAENVGKHVGMDVVRTGIDVVGCKIKGEC] | 1.79 (≈ 8.6 µg/mL) | 1.79 (≈ 8.6 µg/mL) | 1.79 (≈ 8.6 µg/mL) | 1.79 (≈ 8.6 µg/mL) | 
6 | CC[C@H](C)[C@H](NC(=O)CN)C(=O)N[C@@H](CC(C)C)C(=O)N[C@@H](CO)C(=O)NCC(=O)N[C@@H](CC(C)C)C(=O)N[C@@H](CC(C)C)C(=O)NCC(=O)N[C@H](C(=O)NCC(=O)N[C@@H](CCCCN)C(=O)N[C@@H](CCSC)C(=O)N[C@@H](CC(C)C)C(=O)N[C@H](C(=O)N[C@H]1CSSC[C@@H](C(=O)O)NC(=O)[C@H](CC(C)C)NC(=O)CNC(=O)[C@H](CO)NC(=O)[C@H](CC(C)C)NC(=O)CNC1=O)C(C)C)C(C)C [GILSGLLGVGKMLVCGLSGLC] | 5.12 (≈ 10.2 µg/mL) | 5.12 (≈ 10.2 µg/mL) | 10.2 (≈ 20.4 µg/mL) | 10.2 (≈ 20.4 µg/mL) | 
7 | CC[C@H](C)[C@H](NC(=O)[C@H](C)NC(=O)[C@H](CCSC)NC(=O)[C@H](CC(N)=O)NC(=O)[C@H](CCCCN)NC(=O)[C@H](Cc1ccccc1)NC(=O)[C@@H](NC(=O)[C@H](CC(=O)O)NC(=O)[C@H](CC(C)C)NC(=O)[C@H](CC(C)C)NC(=O)CN)[C@@H](C)O)C(=O)N[C@@H](CC(N)=O)C(=O)N[C@@H](C)C(=O)N[C@@H](C)C(=O)N[C@@H](Cc1cnc[nH]1)C(=O)NCC(=O)N[C@@H](C)C(=O)NCC(=O)N[C@H](C(=O)N[C@@H](CO)C(=O)N[C@H](C(=O)N[C@@H](CC(C)C)C(=O)N[C@@H](CC(N)=O)C(=O)N[C@@H](C)C(=O)N[C@@H](CC(C)C)C(=O)N[C@@H](CO)C(=O)N[C@H]1CSSC[C@@H](C(=O)O)NC(=O)[C@H]([C@@H](C)O)NC(=O)[C@H](CCCCN)NC(=O)[C@H](CCCCN)NC(=O)[C@H](CC(C)C)NC(=O)[C@H](CCCCN)NC1=O)C(C)C)C(C)C [GLLDTFKNMAINAAHGAGVSVLNALSCKLKKTC] | 0.944 (≈ 3.2 µg/mL) | 1.86 (≈ 6.3 µg/mL) | 1.86 (≈ 6.3 µg/mL) | 3.72 (≈ 12.6 µg/mL) | 
